Target: T1, Ketohexokinase (Human, UniProt P50053)
T1 sequence (P50053 whole entry): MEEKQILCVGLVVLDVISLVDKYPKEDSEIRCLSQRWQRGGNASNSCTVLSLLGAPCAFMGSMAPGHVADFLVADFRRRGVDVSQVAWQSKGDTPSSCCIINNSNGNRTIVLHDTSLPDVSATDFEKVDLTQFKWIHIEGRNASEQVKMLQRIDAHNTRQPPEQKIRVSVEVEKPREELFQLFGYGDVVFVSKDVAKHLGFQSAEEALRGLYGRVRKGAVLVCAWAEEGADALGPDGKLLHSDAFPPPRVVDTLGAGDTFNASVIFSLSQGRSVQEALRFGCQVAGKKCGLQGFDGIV
Assay: Enzyme Assay
Method: An enzymatic assay was developed to measure KHK-mediated conversion of D-fructose to Fructose-1-P (F-1-P) using High Throughput Mass Spectroscopy (HTMS) as a means of product detection. […] The assay was carried out in 384-well plate format.

| IC50 | SMILES |
| --- | --- |
| 0.39 µM | COc1nn(-c2ccccc2)c2cc(N3CN(C4CCNCC4)C3)ccc12 [US9771375, Example 73] |
| 2.71 µM | CCc1nn(-c2ccccc2)c2nc(-c3ccc(N4CCNCC4)cc3)nc(O)c12 [US9771375, Example 97] |

From BindingDB's records for patent US9771375 (Janssen Pharmaceutica NV, 2017)
